Source: PubChem BioAssay (NCI)
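Cultured in 96-well plates, cells were exposed to test compound for 48 hours across five concentrations. Abbreviation: GI50, concentration required for 50% inhibition of growth. The concentration for full growth arrest is given as TGI.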

How the values were obtained:
Test in all cases: inhibition of tumour cell growth, NCI panel, 48 h
[1] = system: HCT-15 colon
[2] = system: NCI-H460 lung
[3] = system: HCT-116 colon
[4] = system: LOX IMVI melanoma
[5] = system: KM12 colon
[6] = system: OVCAR-3 ovarian
[7] = system: RPMI-8226 leukemia
[8] = system: RXF 393 renal
[9] = system: SF-268 CNS
[10] = system: A498 renal
[11] = system: NCI-H23 lung
[12] = system: CCRF-CEM leukemia
[13] = system: SK-MEL-5 melanoma
[14] = system: K-562 leukemia
[15] = system: U251 CNS
[16] = system: PC-3 prostate
[17] = system: MDA-MB-231 breast
[18] = system: SF-539 CNS
[19] = system: ACHN renal
[20] = system: 786-0 renal
[21] = system: OVCAR-8 ovarian
[22] = system: SR leukemia
[23] = system: CAKI-1 renal
[24] = system: SK-MEL-2 melanoma
[25] = system: SNB-75 CNS
[26] = system: BT-549 breast
[27] = system: TK-10 renal
[28] = system: NCI-H226 lung
[29] = system: OVCAR-5 ovarian

O=C1[C@@H]2Cc3c([nH]c4ccccc34)[C@H](c3c(Cl)cccc3Cl)N2C(=O)CN1C1CCN(Cc2ccccc2)CC1
GI50 [1]: 2.52 µM | TGI [1]: 5.09 µM | GI50 [2]: 2.82 µM | TGI [2]: 5.68 µM | GI50 [3]: 2.6 µM | TGI [3]: 5.49 µM | GI50 [4]: 2.21 µM | TGI [4]: 4.54 µM | GI50 [5]: 4.59 µM | TGI [5]: > 14.3 µM | GI50 [6]: 2.85 µM | TGI [6]: 6.83 µM | GI50 [7]: 2.74 µM | TGI [7]: 8.28 µM | GI50 [8]: 1.92 µM | TGI [8]: 3.86 µM | GI50 [9]: 2.82 µM | TGI [9]: 10.8 µM | GI50 [10]: 3.49 µM | TGI [10]: 12.4 µM | GI50 [11]: 4.77 µM | TGI [11]: > 14.3 µM | GI50 [12]: 4.33 µM | TGI [12]: > 14.3 µM | GI50 [13]: 2.4 µM | TGI [13]: 4.82 µM | GI50 [14]: 2.98 µM | TGI [14]: 7.56 µM | GI50 [15]: 2.34 µM | TGI [15]: 4.63 µM | GI50 [16]: 3.06 µM | TGI [16]: 10.7 µM | GI50 [17]: 2.57 µM | TGI [17]: 6.27 µM | GI50 [18]: 2.37 µM | TGI [18]: 4.55 µM | GI50 [19]: 2.19 µM | TGI [19]: 4.15 µM | GI50 [20]: 2.5 µM | TGI [20]: 4.7 µM | GI50 [21]: 3.8 µM | TGI [21]: 13.1 µM | GI50 [22]: 2.32 µM | TGI [22]: 6.92 µM | GI50 [23]: 1.81 µM | TGI [23]: 4.79 µM | GI50 [24]: 4.94 µM | TGI [24]: > 14.3 µM | GI50 [25]: 0.719 µM | TGI [25]: 3.43 µM | GI50 [26]: 2.22 µM | TGI [26]: 5.17 µM | GI50 [27]: 2.58 µM | TGI [27]: 5.13 µM | GI50 [28]: 10.6 µM | TGI [28]: > 14.3 µM | GI50 [29]: 3.12 µM | TGI [29]: 9.29 µM
